Measurements: the supplement of paper PMC6045584
± gives the standard deviation of the averaged measurements.

Assays:
[1] = compound: CCn1c(C(=O)N(C2CC2)C2CC2)cc2c3c(ncn3C)c(Nc3cc(C)n(C)n3)nc21; experiment: surviving fraction relative to DMSO-only wells; higher = less growth inhibition; details: exposure time: 5 days
In short: (§1)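 Log-phase tumour cell lines were seeded at 250–500 cells per well in 384-well plates. After 24 hours they were exposed continuously for five days to inhibitors at 0.5, 1, 5, 10, 50, 100, 500 and 1000 nM. Viability was read by CellTiter-Glo luminescence after 10 minutes at room temperature, and surviving fraction is luminescence normalised to the median of DMSO-only wells. Each line was screened three times and kept only if replicate Pearson r >0.7 and median Z' >0.3.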

SORAFENIB = compound: CNC(=O)c1cc(Oc2ccc(NC(=O)Nc3ccc(Cl)c(C(F)(F)F)c3)cc2)ccn1 [SORAFENIB]; experiment: as above; details: exposure time: 5 days
In short: as §1

Row | Test System | surviving fraction ([1]; 0.5 nM) | surviving fraction ([1]; 1 nM) | surviving fraction ([1]; 5 nM) | surviving fraction ([1]; 10 nM) | surviving fraction ([1]; 50 nM) | surviving fraction ([1]; 100 nM) | surviving fraction ([1]; 500 nM) | surviving fraction ([1]; 1000 nM) | surviving fraction (SORAFENIB; 0.5 nM) | surviving fraction (SORAFENIB; 1 nM) | surviving fraction (SORAFENIB; 10 nM) | surviving fraction (SORAFENIB; 50 nM) | surviving fraction (SORAFENIB; 100 nM) | surviving fraction (SORAFENIB; 1000 nM) | surviving fraction (SORAFENIB; 5 nM) | surviving fraction (SORAFENIB; 500 nM)
1 | LM7 BONE | 0.967 ± 0.042 | 0.976 ± 0.03 | 1.07 ± 0.041 | 1.03 ± 0.097 | 1.04 ± 0.047 | 1.06 ± 0.073 | 0.994 ± 0.12 | 0.896 ± 0.03 | 0.938 ± 0.057 | 0.97 ± 0.048 | 1.01 ± 0.066 | 1.11 ± 0.14 | 1.04 ± 0.054 | 1.05 ± 0.033 |  | 
2 | MFM223 BREAST | 1.07 ± 0.076 | 1.02 ± 0.056 | 1.03 ± 0.047 | 1.04 ± 0.053 | 1.1 ± 0.087 | 1.18 ± 0.075 | 1.17 ± 0.092 | 1.15 ± 0.089 | 1.18 ± 0.021 | 1.16 ± 0.048 | 1.15 ± 0.047 | 1.23 ± 0.13 | 1.14 ± 0.081 | 0.742 ± 0.08 | 1.23 ± 0.08 | 1.06 ± 0.13
3 | MDAMB453 BREAST | 1.02 ± 0.033 | 0.992 ± 0.039 | 0.983 ± 0.02 | 0.986 ± 0.028 | 1.048 ± 0.0087 | 1.05 ± 0.033 | 1.04 ± 0.015 | 1.02 ± 0.028 | 1.08 ± 0.064 |  | 1.09 ± 0.011 | 1.12 ± 0.056 | 1.12 ± 0.091 | 1.04 ± 0.047 | 1.11 ± 0.074 | 
4 | JIMT1 BREAST | 0.975 ± 0.024 | 0.969 ± 0.034 | 0.973 ± 0.026 | 1.01 ± 0.013 | 1.07 ± 0.046 | 1.06 ± 0.02 | 1.06 ± 0.014 | 1.06 ± 0.0097 |  | 0.986 ± 0.028 | 0.97 ± 0.014 |  | 1.05 ± 0.046 | 0.986 ± 0.071 | 1.02 ± 0.022 | 
5 | NOS1 BONE | 1.09 ± 0.11 | 1.13 ± 0.12 | 1.14 ± 0.035 | 1.04 ± 0.1 | 1.12 ± 0.15 | 1.13 ± 0.088 | 1.06 ± 0.2 | 0.884 ± 0.16 | 1.04 ± 0.11 |  | 0.997 ± 0.058 | 0.995 ± 0.053 | 0.874 ± 0.056 | 0.613 ± 0.062 | 1.12 ± 0.17 | 0.684 ± 0.0075
6 | HOSMNG BONE | 1 ± 0.071 | 0.979 ± 0.11 | 0.992 ± 0.068 | 0.985 ± 0.07 | 1.04 ± 0.061 | 1.08 ± 0.08 | 1.01 ± 0.1 | 1.09 ± 0.038 | 0.994 ± 0.086 | 0.975 ± 0.14 | 1 ± 0.14 | 1.06 ± 0.11 | 1.05 ± 0.16 | 1.06 ± 0.15 | 0.943 ± 0.092 | 1.1 ± 0.049
7 | BT549 BREAST | 1.14 ± 0.22 | 1 ± 0.046 | 1.06 ± 0.11 | 1.18 ± 0.12 | 0.934 ± 0.19 | 0.965 ± 0.2 | 1.04 ± 0.1 | 0.887 ± 0.13 | 1.2 ± 0.1 | 1.11 ± 0.17 | 1.15 ± 0.068 | 1.07 ± 0.081 |  | 1.11 ± 0.16 | 1.037 ± 0.01 | 1.09 ± 0.11
8 | CAL120 BREAST | 0.876 ± 0.038 | 0.911 ± 0.018 | 0.937 ± 0.036 | 0.924 ± 0.056 | 0.962 ± 0.0098 | 0.94 ± 0.036 | 0.941 ± 0.026 | 0.897 ± 0.012 | 0.959 ± 0.026 | 0.9315 ± 0.0074 |  | 1.02 ± 0.014 | 1.01 ± 0.038 | 0.942 ± 0.032 | 0.931 ± 0.025 | 0.973 ± 0.023
9 | VP229 BREAST | 0.983 ± 0.11 | 1.04 ± 0.14 | 1.02 ± 0.21 | 1.06 ± 0.14 | 1.15 ± 0.13 | 1.09 ± 0.12 | 1.23 ± 0.1 | 1.14 ± 0.034 | 0.934 ± 0.11 | 0.939 ± 0.05 | 1 ± 0.11 | 1.21 ± 0.088 | 1.12 ± 0.17 | 1.3 ± 0.028 | 1.06 ± 0.11 | 1.31 ± 0.13
10 | HT1080 SOFT TISSUE | 1.01 ± 0.04 | 0.993 ± 0.015 | 1.004 ± 0.0098 | 1.039 ± 0.002 | 0.965 ± 0.023 | 1.01 ± 0.036 | 0.997 ± 0.036 | 0.969 ± 0.011 | 1.04 ± 0.057 | 1.05 ± 0.036 | 1.02 ± 0.014 | 1.023 ± 0.005 | 1.01 ± 0.028 | 1.01 ± 0.031 | 1.04 ± 0.035 | 1.05 ± 0.09
11 | ZR751 BREAST | 0.982 ± 0.19 | 0.864 ± 0.032 | 0.877 ± 0.11 | 0.99 ± 0.057 | 0.894 ± 0.095 | 0.8 ± 0.031 | 0.812 ± 0.027 | 0.772 ± 0.12 | 1.08 ± 0.086 | 1.04 ± 0.02 | 1.02 ± 0.18 | 1.28 ± 0.042 | 1.31 ± 0.19 | 1.06 ± 0.072 | 0.99 ± 0.056 | 
12 | HCC202 BREAST | 1.32 ± 0.046 | 1.04 ± 0.17 | 1.16 ± 0.22 | 1.38 ± 0.23 | 1.4 ± 0.19 | 1.23 ± 0.057 | 1.35 ± 0.36 | 1.08 ± 0.062 | 1.23 ± 0.35 |  | 1.02 ± 0.031 | 0.987 ± 0.055 |  | 0.685 ± 0.15 | 1.11 ± 0.18 | 0.897 ± 0.13
13 | CAL51 BREAST | 0.972 ± 0.049 | 0.985 ± 0.034 | 0.98 ± 0.036 | 0.976 ± 0.043 | 1.02 ± 0.043 | 1.06 ± 0.031 | 1.02 ± 0.034 | 0.99 ± 0.015 | 0.979 ± 0.04 | 0.991 ± 0.014 | 1.01 ± 0.022 | 1.12 ± 0.046 | 1.1 ± 0.05 | 0.977 ± 0.041 | 0.9937 ± 0.0025 | 1.02 ± 0.034
14 | SG28 HEADNECK | 1.06 ± 0.11 | 1.05 ± 0.038 | 1.02 ± 0.025 | 1.02 ± 0.046 | 1.13 ± 0.043 | 0.954 ± 0.096 | 0.951 ± 0.081 | 0.95 ± 0.093 | 1.17 ± 0.13 |  | 1.22 ± 0.18 | 1.21 ± 0.066 | 1.27 ± 0.1 | 1.32 ± 0.14 | 1.18 ± 0.1 | 1.44 ± 0.19
15 | SG31 HEADNECK | 1.04 ± 0.069 | 1.02 ± 0.043 | 1.02 ± 0.12 | 0.875 ± 0.1 | 0.949 ± 0.13 | 1.08 ± 0.46 | 0.955 ± 0.16 | 0.961 ± 0.06 | 1.03 ± 0.11 | 1.1 ± 0.11 | 1.08 ± 0.15 | 1.2 ± 0.31 | 1.07 ± 0.092 | 1.22 ± 0.13 | 1.09 ± 0.092 | 1.4 ± 0.22
16 | SAOS2 BONE | 1 ± 0.061 | 0.97 ± 0.011 | 1.06 ± 0.12 | 0.96 ± 0.031 | 1.12 ± 0.02 | 1.05 ± 0.069 | 1.05 ± 0.072 | 1.04 ± 0.091 | 0.935 ± 0.028 | 1.019 ± 0.0098 | 1.04 ± 0.064 | 1.17 ± 0.017 | 1.237 ± 0.0023 | 1.07 ± 0.079 | 1.072 ± 0.0081 | 1.196 ± 0.01
17 | SCC36 HEADNECK | 0.87 ± 0.045 | 1.07 ± 0.1 | 1.12 ± 0.077 | 1.11 ± 0.044 | 1.12 ± 0.073 | 1.04 ± 0.032 | 1.07 ± 0.093 | 0.962 ± 0.057 |  | 1.02 ± 0.064 | 1.18 ± 0.018 | 1.18 ± 0.16 | 1.17 ± 0.056 | 1.18 ± 0.065 | 1.15 ± 0.11 | 1.2 ± 0.049
18 | DU4475 BREAST | 0.875 ± 0.26 | 0.938 ± 0.15 | 0.819 ± 0.24 | 0.887 ± 0.2 | 0.713 ± 0.23 | 0.675 ± 0.29 | 0.91 ± 0.46 | 1.05 ± 0.35 | 1.07 ± 0.35 | 1.05 ± 0.2 | 0.999 ± 0.18 | 0.819 ± 0.25 | 0.939 ± 0.46 | 0.769 ± 0.32 | 0.927 ± 0.29 | 0.906 ± 0.31
19 | HOS BONE | 1 ± 0.0066 | 0.9927 ± 0.0081 | 0.994 ± 0.023 | 0.997 ± 0.0046 | 1.047 ± 0.0078 | 1.037 ± 0.0023 | 1.02 ± 0.013 | 0.96 ± 0.018 | 1.03 ± 0.043 | 1.015 ± 0.0025 | 1.03 ± 0.018 | 1.09 ± 0.014 |  |  | 1.025 ± 0.0095 | 
20 | CHLA90 AUTONOMIC GANGLIA | 0.986 ± 0.026 | 0.944 ± 0.037 | 0.905 ± 0.032 | 0.918 ± 0.095 | 0.961 ± 0.011 | 0.975 ± 0.003 | 0.945 ± 0.065 | 0.968 ± 0.026 | 0.992 ± 0.05 | 1.04 ± 0.039 | 0.996 ± 0.037 | 1.13 ± 0.037 | 1.27 ± 0.062 | 1.5 ± 0.12 |  | 1.38 ± 0.1
21 | HCC1954 BREAST | 0.868 ± 0.014 | 0.837 ± 0.18 | 0.999 ± 0.22 | 0.932 ± 0.18 | 0.92 ± 0.028 | 0.896 ± 0.013 | 0.764 ± 0.065 | 0.921 ± 0.085 | 1.11 ± 0.15 |  | 0.93 ± 0.27 | 1.22 ± 0.11 | 1.29 ± 0.039 | 1.33 ± 0.14 | 1.02 ± 0.077 | 1.3 ± 0.1
22 | SUM149.B1*.S BREAST | 1.05 ± 0.053 | 0.99 ± 0.02 | 1.05 ± 0.014 | 1 ± 0.013 | 1.08 ± 0.045 | 1.11 ± 0.018 | 1.07 ± 0.011 | 1.08 ± 0.033 | 1.1 ± 0.025 | 1.051 ± 0.004 | 1.05 ± 0.033 |  | 1.202 ± 0.0063 | 0.609 ± 0.04 | 1.08 ± 0.05 | 0.807 ± 0.024
